Test results reported in the kinase profiling compilation of Christmann-Franck et al. (2016).

Key:
Experiment in all cases: radiometric filter-binding kinase assay, Kinaseprofiler
EPHB4 (human) = EPHB4 (human) (UniProt P54760); conditions: ATP 10 µM
CHEK1 (human) = CHEK1 (human) (UniProt O14757); conditions: ATP 90 µM
CDK9 CCNT1 (human) = CDK9 CCNT1 (human) (UniProt P50750+O60563); conditions: ATP 45 µM
GSG2 (human) = GSG2 (human) (UniProt Q8TF76); conditions: ATP 70 µM
[1] = target: CSNK2A1 CSNK2B CSNK2A2 (human) (UniProt P19784+P68400+P67870); conditions: ATP 15 µM
DCLK2 (human) = DCLK2 (human) (UniProt Q8N568); conditions: ATP 90 µM
MAPK8 (human) = MAPK8 (human) (UniProt P45983); conditions: ATP 45 µM
GRK6 (human) = GRK6 (human) (UniProt P43250); conditions: ATP 45 µM
ABL2 (human) = ABL2 (human) (UniProt P42684); conditions: ATP 45 µM
PLK1 (human) = PLK1 (human) (UniProt P53350); conditions: ATP 70 µM
ITK (human) = ITK (human) (UniProt Q08881); conditions: ATP 200 µM
PIM1 (human) = PIM1 (human) (UniProt P11309); conditions: ATP 90 µM
PRKCQ (human) = PRKCQ (human) (UniProt Q04759); conditions: ATP 15 µM
PAK4 (human) = PAK4 (human) (UniProt O96013); conditions: ATP 10 µM
CSNK1G2 (human) = CSNK1G2 (human) (UniProt P78368); conditions: ATP 10 µM
ULK3 (human) = ULK3 (human) (UniProt Q6PHR2); conditions: ATP 10 µM
PAK3 (human) = PAK3 (human) (UniProt O75914); conditions: ATP 120 µM
LYN (human) = LYN (human) (UniProt P07948); conditions: ATP 70 µM
PRKCE (human) = PRKCE (human) (UniProt Q02156); conditions: ATP 45 µM
NEK3 (human) = NEK3 (human) (UniProt P51956); conditions: ATP 120 µM
EPHA8 (human) = EPHA8 (human) (UniProt P29322); conditions: ATP 200 µM
CAMK4 (human) = CAMK4 (human) (UniProt Q16566); conditions: ATP 10 µM
[2] = system: EEF2K (human), O00418 [H23R]; conditions: ATP 15 µM
PRKCA (human) = PRKCA (human) (UniProt P17252); conditions: ATP 45 µM
PRKX (human) = PRKX (human) (UniProt P51817); conditions: ATP 200 µM
BMX (human) = BMX (human) (UniProt P51813); conditions: ATP 45 µM
STK33 (human) = STK33 (human) (UniProt Q9BYT3); conditions: ATP 155 µM
CHUK (human) = CHUK (human) (UniProt O15111); conditions: ATP 10 µM
TAOK2 (human) = TAOK2 (human) (UniProt Q9UL54); conditions: ATP 15 µM
RPS6KA6 KD1 KD2 (human) = RPS6KA6 KD1 KD2 (human) (UniProt Q9UK32); conditions: ATP 45 µM
RPS6KA4 KD1 KD2 (human) = RPS6KA4 KD1 KD2 (human) (UniProt O75676); conditions: ATP 45 µM
CDK6 CCND3 (human) = CDK6 CCND3 (human) (UniProt P30281+Q00534); conditions: ATP 200 µM

EPHA8 (human), sequence (P29322 whole entry, looked up): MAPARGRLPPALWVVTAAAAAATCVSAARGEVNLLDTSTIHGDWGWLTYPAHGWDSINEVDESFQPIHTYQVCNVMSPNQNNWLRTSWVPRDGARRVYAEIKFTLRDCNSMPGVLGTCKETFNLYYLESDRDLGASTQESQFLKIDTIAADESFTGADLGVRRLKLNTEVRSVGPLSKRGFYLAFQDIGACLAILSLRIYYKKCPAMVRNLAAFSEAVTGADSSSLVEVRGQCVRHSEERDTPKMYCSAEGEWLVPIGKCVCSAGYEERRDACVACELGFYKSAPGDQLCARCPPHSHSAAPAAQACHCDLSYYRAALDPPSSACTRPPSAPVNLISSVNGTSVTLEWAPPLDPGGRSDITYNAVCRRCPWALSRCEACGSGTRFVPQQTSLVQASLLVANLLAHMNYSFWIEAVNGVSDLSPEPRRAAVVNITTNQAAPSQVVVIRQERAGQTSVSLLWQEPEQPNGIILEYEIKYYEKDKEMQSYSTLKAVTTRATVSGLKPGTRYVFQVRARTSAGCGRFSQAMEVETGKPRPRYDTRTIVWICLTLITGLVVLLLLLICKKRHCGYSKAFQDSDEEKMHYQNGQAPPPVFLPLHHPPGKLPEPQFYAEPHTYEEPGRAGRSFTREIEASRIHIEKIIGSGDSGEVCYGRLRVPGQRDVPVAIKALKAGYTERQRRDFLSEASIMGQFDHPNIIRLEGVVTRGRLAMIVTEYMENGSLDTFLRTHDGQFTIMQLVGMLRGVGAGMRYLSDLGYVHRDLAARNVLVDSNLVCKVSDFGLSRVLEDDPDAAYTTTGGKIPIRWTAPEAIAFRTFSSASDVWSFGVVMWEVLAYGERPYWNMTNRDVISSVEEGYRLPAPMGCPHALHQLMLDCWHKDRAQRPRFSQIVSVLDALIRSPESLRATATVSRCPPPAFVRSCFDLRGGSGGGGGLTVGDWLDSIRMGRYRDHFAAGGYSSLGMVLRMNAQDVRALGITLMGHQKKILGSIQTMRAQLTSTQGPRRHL
LYN (human), sequence (P07948 whole entry, looked up): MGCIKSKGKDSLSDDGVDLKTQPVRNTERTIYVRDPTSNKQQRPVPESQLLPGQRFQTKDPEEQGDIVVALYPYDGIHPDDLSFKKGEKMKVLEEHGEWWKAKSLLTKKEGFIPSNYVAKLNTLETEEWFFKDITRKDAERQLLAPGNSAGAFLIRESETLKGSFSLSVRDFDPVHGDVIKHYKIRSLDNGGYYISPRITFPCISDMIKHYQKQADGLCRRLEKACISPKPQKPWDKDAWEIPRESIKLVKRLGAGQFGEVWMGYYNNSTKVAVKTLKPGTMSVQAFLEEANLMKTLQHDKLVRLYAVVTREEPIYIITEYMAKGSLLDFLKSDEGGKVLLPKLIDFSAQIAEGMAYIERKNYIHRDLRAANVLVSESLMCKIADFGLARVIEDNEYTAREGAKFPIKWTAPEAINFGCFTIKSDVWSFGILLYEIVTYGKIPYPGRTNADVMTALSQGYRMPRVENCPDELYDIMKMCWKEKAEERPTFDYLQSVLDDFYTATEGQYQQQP
CHEK1 (human), sequence (O14757 whole entry, looked up): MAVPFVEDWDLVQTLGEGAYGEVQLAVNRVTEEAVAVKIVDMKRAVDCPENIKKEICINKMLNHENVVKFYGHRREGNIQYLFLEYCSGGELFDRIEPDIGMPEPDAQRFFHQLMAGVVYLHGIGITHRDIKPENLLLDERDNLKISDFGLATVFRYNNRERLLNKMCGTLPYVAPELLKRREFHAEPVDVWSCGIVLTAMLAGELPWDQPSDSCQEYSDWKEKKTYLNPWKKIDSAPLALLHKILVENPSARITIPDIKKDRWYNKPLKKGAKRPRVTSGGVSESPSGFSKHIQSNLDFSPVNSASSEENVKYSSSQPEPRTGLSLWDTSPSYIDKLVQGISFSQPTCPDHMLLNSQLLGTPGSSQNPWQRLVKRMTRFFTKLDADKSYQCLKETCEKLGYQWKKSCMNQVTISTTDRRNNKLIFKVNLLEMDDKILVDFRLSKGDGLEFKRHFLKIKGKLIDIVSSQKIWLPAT
CSNK2A1 CSNK2B CSNK2A2 (human), sequence (P19784 whole entry, looked up): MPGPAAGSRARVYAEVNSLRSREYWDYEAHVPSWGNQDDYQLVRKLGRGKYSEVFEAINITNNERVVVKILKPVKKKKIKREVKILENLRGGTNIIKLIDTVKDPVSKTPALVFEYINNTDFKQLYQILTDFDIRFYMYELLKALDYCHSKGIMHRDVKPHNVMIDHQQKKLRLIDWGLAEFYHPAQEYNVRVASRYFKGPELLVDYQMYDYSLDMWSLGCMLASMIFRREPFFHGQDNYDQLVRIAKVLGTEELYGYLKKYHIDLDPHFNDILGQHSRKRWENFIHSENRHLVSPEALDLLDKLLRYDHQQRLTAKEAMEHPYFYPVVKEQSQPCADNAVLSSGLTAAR
CSNK2A1 CSNK2B CSNK2A2 (human), sequence (P67870 whole entry, looked up): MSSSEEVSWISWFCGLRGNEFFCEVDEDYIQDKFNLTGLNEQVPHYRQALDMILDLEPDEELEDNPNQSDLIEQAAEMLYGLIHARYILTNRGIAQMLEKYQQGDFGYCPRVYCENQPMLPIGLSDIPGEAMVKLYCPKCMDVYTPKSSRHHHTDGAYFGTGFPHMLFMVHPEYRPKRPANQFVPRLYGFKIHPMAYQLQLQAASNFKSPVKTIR
CSNK2A1 CSNK2B CSNK2A2 (human), sequence (P68400 whole entry, looked up): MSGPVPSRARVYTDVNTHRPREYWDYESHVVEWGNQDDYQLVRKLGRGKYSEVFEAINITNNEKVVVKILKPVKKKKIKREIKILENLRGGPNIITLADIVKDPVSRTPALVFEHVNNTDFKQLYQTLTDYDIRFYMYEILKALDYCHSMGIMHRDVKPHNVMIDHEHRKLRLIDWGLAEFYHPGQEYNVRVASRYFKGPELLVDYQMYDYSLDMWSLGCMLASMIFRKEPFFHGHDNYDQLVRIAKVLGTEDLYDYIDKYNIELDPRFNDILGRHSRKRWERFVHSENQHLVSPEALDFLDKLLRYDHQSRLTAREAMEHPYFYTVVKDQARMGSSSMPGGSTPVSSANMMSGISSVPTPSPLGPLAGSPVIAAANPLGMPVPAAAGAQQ
MAPK8 (human), sequence (P45983 whole entry, looked up): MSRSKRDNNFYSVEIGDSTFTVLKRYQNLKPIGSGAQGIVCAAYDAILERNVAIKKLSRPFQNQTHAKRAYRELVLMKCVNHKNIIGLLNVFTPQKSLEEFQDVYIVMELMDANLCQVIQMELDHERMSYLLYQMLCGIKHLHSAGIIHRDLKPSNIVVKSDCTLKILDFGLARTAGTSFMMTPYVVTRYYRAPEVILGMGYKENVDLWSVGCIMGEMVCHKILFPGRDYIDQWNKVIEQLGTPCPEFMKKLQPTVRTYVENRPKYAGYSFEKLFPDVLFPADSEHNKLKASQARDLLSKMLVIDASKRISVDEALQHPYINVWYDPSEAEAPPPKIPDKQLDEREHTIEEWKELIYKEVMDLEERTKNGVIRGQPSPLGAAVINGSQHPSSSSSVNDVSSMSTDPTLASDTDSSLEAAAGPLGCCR
GRK6 (human), sequence (P43250 whole entry, looked up): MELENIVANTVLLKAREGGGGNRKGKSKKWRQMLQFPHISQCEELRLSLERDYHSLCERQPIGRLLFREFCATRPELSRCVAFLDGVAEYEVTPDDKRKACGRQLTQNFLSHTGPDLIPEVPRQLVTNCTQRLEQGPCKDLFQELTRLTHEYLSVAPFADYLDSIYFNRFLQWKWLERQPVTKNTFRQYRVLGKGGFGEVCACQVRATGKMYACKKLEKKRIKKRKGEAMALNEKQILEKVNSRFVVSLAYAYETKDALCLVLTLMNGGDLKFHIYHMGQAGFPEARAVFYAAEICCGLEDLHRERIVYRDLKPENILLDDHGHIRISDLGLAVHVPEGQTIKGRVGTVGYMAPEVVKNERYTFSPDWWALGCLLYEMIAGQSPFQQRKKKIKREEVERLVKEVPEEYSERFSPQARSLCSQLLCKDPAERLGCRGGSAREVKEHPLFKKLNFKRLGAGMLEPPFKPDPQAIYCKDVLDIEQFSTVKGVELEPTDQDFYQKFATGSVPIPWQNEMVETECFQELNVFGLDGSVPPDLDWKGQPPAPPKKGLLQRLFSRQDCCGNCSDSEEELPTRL
PIM1 (human), sequence (P11309 whole entry, looked up): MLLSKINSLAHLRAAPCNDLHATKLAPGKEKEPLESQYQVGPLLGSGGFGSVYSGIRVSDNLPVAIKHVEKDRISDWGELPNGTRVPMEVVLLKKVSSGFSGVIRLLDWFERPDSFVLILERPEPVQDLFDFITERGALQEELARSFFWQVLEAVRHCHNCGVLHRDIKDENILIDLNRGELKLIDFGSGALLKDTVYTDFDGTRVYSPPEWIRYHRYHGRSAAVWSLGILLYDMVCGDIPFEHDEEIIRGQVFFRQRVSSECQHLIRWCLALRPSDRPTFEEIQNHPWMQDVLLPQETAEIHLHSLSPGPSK

O=C1Nc2ccccc2/C1=C1\Nc2ccccc2\C1=N/O
residual activity (EPHB4 (human); compound 1.0 µM): 67%
residual activity (EPHB4 (human); compound 10.0 µM): 13%
residual activity (CHEK1 (human); compound 1.0 µM): 65%
residual activity (CHEK1 (human); compound 10.0 µM): 30%
residual activity (CDK9 CCNT1 (human); compound 1.0 µM): 26%
residual activity (CDK9 CCNT1 (human); compound 10.0 µM): 11%
residual activity (GSG2 (human); compound 1.0 µM): 26%
residual activity (GSG2 (human); compound 10.0 µM): 19%
residual activity ([1]; compound 1.0 µM): 112%
residual activity ([1]; compound 10.0 µM): 78%
residual activity (DCLK2 (human); compound 1.0 µM): 119%
residual activity (DCLK2 (human); compound 10.0 µM): 74%
residual activity (MAPK8 (human); compound 1.0 µM): 63%
residual activity (MAPK8 (human); compound 10.0 µM): 70%
residual activity (GRK6 (human); compound 1.0 µM): 81%
residual activity (GRK6 (human); compound 10.0 µM): 80%
residual activity (ABL2 (human); compound 1.0 µM): 30%
residual activity (ABL2 (human); compound 10.0 µM): 28%
residual activity (PLK1 (human); compound 1.0 µM): 83%
residual activity (PLK1 (human); compound 10.0 µM): 103%
residual activity (ITK (human); compound 1.0 µM): 19%
residual activity (ITK (human); compound 10.0 µM): 1%
residual activity (PIM1 (human); compound 1.0 µM): 76%
residual activity (PIM1 (human); compound 10.0 µM): 47%
residual activity (PRKCQ (human); compound 1.0 µM): 81%
residual activity (PRKCQ (human); compound 10.0 µM): 55%
residual activity (PAK4 (human); compound 1.0 µM): 55%
residual activity (PAK4 (human); compound 10.0 µM): 14%
residual activity (CSNK1G2 (human); compound 1.0 µM): 64%
residual activity (CSNK1G2 (human); compound 10.0 µM): 20%
residual activity (ULK3 (human); compound 1.0 µM): 55%
residual activity (ULK3 (human); compound 10.0 µM): 12%
residual activity (PAK3 (human); compound 1.0 µM): 88%
residual activity (PAK3 (human); compound 10.0 µM): 57%
residual activity (LYN (human); compound 1.0 µM): 8%
residual activity (LYN (human); compound 10.0 µM): 2%
residual activity (PRKCE (human); compound 1.0 µM): 106%
residual activity (PRKCE (human); compound 10.0 µM): 91%
residual activity (NEK3 (human); compound 1.0 µM): 86%
residual activity (NEK3 (human); compound 10.0 µM): 94%
residual activity (EPHA8 (human); compound 1.0 µM): 84%
residual activity (EPHA8 (human); compound 10.0 µM): 43%
residual activity (CAMK4 (human); compound 1.0 µM): 66%
residual activity (CAMK4 (human); compound 10.0 µM): 10%
residual activity ([2]; compound 1.0 µM): 109%
residual activity ([2]; compound 10.0 µM): 93%
residual activity (PRKCA (human); compound 1.0 µM): 93%
residual activity (PRKCA (human); compound 10.0 µM): 86%
residual activity (PRKX (human); compound 1.0 µM): 48%
residual activity (PRKX (human); compound 10.0 µM): 33%
residual activity (BMX (human); compound 1.0 µM): 21%
residual activity (BMX (human); compound 10.0 µM): 4%
residual activity (STK33 (human); compound 1.0 µM): 43%
residual activity (STK33 (human); compound 10.0 µM): 8%
residual activity (CHUK (human); compound 1.0 µM): 76%
residual activity (CHUK (human); compound 10.0 µM): 57%
residual activity (TAOK2 (human); compound 1.0 µM): 75%
residual activity (TAOK2 (human); compound 10.0 µM): 26%
residual activity (RPS6KA6 KD1 KD2 (human); compound 1.0 µM): 20%
residual activity (RPS6KA6 KD1 KD2 (human); compound 10.0 µM): 12%
residual activity (RPS6KA4 KD1 KD2 (human); compound 1.0 µM): 32%
residual activity (RPS6KA4 KD1 KD2 (human); compound 10.0 µM): 4%
residual activity (CDK6 CCND3 (human); compound 1.0 µM): 16%
residual activity (CDK6 CCND3 (human); compound 10.0 µM): 5%
